{"source": "paper PMC4057101", "about": "(Science (New York, N.Y.), 2013)", "assay_type_in_all_cases": "biochemical", "key": {"acetate kinase (AckA)": {"target": "acetate kinase (AckA) (Escherichia coli, UniProt P0A6A3)", "sequence (P0A6A3 whole entry)": "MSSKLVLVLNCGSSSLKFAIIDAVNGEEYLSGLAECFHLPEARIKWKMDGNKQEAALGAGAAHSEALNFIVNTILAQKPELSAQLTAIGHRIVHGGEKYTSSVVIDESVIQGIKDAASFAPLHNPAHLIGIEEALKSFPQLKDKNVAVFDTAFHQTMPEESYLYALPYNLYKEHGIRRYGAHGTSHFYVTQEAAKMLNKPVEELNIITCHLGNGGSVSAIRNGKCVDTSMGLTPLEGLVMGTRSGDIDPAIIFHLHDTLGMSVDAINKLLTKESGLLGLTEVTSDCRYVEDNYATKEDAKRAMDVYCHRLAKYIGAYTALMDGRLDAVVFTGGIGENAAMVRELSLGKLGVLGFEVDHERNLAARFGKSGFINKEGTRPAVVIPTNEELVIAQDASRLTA", "conditions": "ATP"}, "PhaB": {"target": "PhaB (Cupriavidus necator, UniProt P14697)", "sequence (P14697 whole entry)": "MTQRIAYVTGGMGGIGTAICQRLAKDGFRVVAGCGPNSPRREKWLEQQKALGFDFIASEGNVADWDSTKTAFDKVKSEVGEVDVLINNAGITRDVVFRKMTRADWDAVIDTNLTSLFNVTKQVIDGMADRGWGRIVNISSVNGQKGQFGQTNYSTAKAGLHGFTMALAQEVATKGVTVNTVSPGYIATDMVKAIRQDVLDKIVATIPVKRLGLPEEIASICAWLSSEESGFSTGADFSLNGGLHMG", "assay": "coupled reduction with NphT7", "conditions": "substrate formed in situ by NphT7"}, "[1]": {"target": "acetyl-CoA carboxylase (ACCase), AccABCD (Escherichia coli, UniProt P0A9Q5+P0ABD5)", "sequence (P0A9Q5 whole entry)": "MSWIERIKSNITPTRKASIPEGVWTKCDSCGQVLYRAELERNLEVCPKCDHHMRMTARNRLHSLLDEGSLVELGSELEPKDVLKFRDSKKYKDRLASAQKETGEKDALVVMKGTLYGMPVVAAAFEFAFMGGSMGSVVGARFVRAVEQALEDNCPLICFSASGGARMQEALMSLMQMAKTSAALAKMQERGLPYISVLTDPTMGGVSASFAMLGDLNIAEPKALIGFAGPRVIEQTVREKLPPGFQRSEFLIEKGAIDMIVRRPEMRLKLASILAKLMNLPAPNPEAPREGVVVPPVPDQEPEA", "sequence (P0ABD5 2-319)": "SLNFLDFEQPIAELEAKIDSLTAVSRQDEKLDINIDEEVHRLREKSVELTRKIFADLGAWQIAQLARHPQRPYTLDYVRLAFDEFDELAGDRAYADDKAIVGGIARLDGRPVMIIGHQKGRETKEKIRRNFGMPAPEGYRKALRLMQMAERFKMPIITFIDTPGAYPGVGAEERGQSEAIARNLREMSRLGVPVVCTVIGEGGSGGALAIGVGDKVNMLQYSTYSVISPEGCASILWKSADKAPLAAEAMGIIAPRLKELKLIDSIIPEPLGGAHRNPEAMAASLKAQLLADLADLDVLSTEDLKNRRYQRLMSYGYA", "assay": "one-pot carboxylation", "conditions": "formed in situ from fluoroacetate by AckA-Pta; 500 μM CoA"}, "NphT7": {"target": "T1, NphT7 (Streptomyces sp. CL190, UniProt D7URV0)", "T1 sequence (D7URV0 1-329)": "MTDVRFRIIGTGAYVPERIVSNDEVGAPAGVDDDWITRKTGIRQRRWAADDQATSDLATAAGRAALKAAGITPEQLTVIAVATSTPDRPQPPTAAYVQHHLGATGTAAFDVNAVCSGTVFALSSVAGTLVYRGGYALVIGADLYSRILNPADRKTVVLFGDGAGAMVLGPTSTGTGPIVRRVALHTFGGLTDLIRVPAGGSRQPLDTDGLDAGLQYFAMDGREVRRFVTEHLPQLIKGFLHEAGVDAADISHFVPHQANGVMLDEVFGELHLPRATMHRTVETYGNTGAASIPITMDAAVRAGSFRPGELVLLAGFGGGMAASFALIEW", "assay": "steady-state kinetics, coupled assay with PhaB", "conditions": "acetyl-CoA starter"}, "DEBSMod6+TE": {"target": "DEBSMod6+TE (Saccharopolyspora erythraea, UniProt Q03133)", "sequence (Q03133 1468-3172)": "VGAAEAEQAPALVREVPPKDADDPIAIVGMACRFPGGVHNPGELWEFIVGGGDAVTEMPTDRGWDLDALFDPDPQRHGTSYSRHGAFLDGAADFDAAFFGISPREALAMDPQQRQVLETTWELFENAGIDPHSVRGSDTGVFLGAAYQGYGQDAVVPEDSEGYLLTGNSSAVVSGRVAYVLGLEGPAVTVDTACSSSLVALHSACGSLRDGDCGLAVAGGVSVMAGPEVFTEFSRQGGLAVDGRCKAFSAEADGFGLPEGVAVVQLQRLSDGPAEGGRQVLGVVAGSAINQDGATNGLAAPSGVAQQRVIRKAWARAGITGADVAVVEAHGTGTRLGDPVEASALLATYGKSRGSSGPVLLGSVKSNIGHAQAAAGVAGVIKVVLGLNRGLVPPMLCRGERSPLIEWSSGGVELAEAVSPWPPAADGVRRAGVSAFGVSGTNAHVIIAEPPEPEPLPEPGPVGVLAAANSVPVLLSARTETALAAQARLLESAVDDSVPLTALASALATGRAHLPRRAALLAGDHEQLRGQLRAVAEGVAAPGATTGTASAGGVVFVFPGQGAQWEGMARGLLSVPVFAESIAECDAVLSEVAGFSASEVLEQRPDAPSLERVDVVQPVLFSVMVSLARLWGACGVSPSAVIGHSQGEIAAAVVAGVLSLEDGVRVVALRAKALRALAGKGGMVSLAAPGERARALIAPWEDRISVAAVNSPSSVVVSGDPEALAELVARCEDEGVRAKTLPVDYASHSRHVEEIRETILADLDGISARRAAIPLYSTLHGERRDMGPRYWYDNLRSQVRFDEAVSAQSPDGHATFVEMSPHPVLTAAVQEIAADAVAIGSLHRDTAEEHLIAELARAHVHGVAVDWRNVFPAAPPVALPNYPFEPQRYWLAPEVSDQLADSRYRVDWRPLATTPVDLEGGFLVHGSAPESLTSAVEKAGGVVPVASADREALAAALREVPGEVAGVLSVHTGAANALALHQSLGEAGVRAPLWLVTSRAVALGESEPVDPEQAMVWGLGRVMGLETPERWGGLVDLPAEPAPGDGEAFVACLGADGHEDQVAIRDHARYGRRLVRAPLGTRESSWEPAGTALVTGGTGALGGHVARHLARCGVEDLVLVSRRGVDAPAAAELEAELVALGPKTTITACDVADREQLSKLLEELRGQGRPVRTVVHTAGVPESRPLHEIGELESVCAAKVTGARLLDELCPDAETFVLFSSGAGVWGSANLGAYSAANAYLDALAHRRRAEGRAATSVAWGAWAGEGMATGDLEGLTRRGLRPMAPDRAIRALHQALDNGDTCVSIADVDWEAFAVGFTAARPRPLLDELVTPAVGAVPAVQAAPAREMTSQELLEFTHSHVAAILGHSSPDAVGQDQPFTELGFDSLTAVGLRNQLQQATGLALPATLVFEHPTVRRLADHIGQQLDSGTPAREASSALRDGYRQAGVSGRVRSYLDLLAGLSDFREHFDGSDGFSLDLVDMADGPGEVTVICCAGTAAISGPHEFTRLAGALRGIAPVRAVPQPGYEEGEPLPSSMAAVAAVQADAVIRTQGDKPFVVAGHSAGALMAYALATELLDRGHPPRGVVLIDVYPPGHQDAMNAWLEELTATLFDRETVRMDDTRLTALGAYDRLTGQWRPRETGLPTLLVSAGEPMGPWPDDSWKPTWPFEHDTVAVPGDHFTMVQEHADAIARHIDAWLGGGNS", "assay": "LC-MS of triketide lactone formation", "conditions": "NDK-SNAC, MatB and ATP regeneration"}}, "data": [{"compound": "CC(=O)O", "note": "[acetate]", "values": [{"measurement": "KM", "setting": "acetate kinase (AckA)", "value": "rapidly produce both acetyl- and fluoroacetyl-CoA in nearly quantitative yield"}]}, {"compound": "CC(=O)C(F)C(=O)SCCNC(=O)CCNC(=O)[C@H](O)C(C)(C)COP(=O)(O)OP(=O)(O)OC[C@H]1O[C@@H](n2cnc3c(N)ncnc32)[C@H](O)[C@@H]1OP(=O)(O)O", "note": "(some centres unmarked) [acetofluoroacetyl-CoA]", "values": [{"measurement": "coupled reduction with NphT7; 1H and 19F NMR of product", "setting": "PhaB", "value": "PhaB is capable of efficiently reducing the acetofluoroacetyl-CoA substrate"}]}, {"compound": "O=C(O)CF", "note": "[fluoroacetate]", "values": [{"measurement": "KM", "setting": "acetate kinase (AckA)", "value": "Analysis of the kinetic parameters for these enzymes with respect to fluorinated substrates"}]}, {"compound": "CC(C)(COP(=O)(O)OP(=O)(O)OC[C@H]1O[C@@H](n2cnc3c(N)ncnc32)[C@H](O)[C@@H]1OP(=O)(O)O)[C@@H](O)C(=O)NCCC(=O)NCCSC(=O)CF", "note": "[fluoroacetyl-CoA]", "values": [{"measurement": "one-pot carboxylation", "setting": "[1]", "value": "carry out the carboxylation of fluoroacetate in a one-pot reaction to generate the fluoromalonyl-CoA"}]}, {"compound": "CC(C)(COP(=O)(O)OP(=O)(O)OC[C@H]1O[C@@H](n2cnc3c(N)ncnc32)[C@H](O)[C@@H]1OP(=O)(O)O)[C@@H](O)C(=O)NCCC(=O)NCCSC(=O)C(F)C(=O)O", "note": "(some centres unmarked) [fluoromalonyl-CoA]", "values": [{"measurement": "KM", "setting": "NphT7", "value": "formation of acetofluoroacetyl-CoA using an acetyl-CoA starter and fluoromalonyl-CoA extender"}, {"measurement": "LC-MS of triketide lactone formation", "setting": "DEBSMod6+TE", "value": "DEBSMod6+TE is also able to accept the fluorinated monomer in chain extension catalysis"}]}, {"compound": "CC(C)(COP(=O)(O)OP(=O)(O)OC[C@H]1O[C@@H](n2cnc3c(N)ncnc32)[C@H](O)[C@@H]1OP(=O)(O)O)[C@@H](O)C(=O)NCCC(=O)NCCSC(=O)CC(=O)O", "note": "[malonyl-CoA]", "values": [{"measurement": "KM", "setting": "NphT7", "value": "Steady-state kinetic parameters for NphT7-catalyzed C–C bond formation"}]}, {"compound": "CC(C(=O)O)C(=O)SCCNC(=O)CCNC(=O)[C@H](O)C(C)(C)COP(=O)(O)OP(=O)(O)OC[C@H]1O[C@@H](n2cnc3c(N)ncnc32)[C@H](O)[C@@H]1OP(=O)(O)O", "note": "(some centres unmarked) [methylmalonyl-CoA]", "values": [{"measurement": "LC-MS of triketide lactone formation", "setting": "DEBSMod6+TE", "value": "single round of chain elongation with its native methylmalonyl-CoA extender unit"}]}]}
